Here are results for three compounds from patent publication US9006216B2, “Biocidal aldehyde composition for oil and gas extraction” (priority 2009, dated 2015).

One test relates to aerobic organisms. The experiment in a line: Killing of aerobic organisms in oil frac water (5 log reduction). The format is cell-based. Particulars: based upon a 5 log reduction in oil frac water. From the text:
(§1) As such there is actually a slight increase in planktonic microbes which are more susceptible to biocide/TTPC effects. Individual biocides affect the physiology of the cell quite differently. […] This is an example of enhanced quantum complementarity. The importance of the environmental parameter cannot be underestimated based upon the foregoing results. TTPC has a similar margin of exposure as the quats for oil field imputability with friction reducers for killing of aerobic organisms. […] The minimum inhibitory concentration (MIC) for the TTPC usage is 50-500 ppm. Therefore it is safe regarding corrosiveness, an important facet in well treatment. […] The faster cidal action is due basically to the chemistry difference between amine quats and phosphonium salts. The ammonium quats have longer alkyl chains. Instead of amine the difference is a phosphonium ion but also importantly is the alkyl chain length. It has been determined that there is an optimal length for anti-bacterial effectiveness. It was dependent upon chain length and attachment moieties. […] Usually the longer chain was better but not in these cases. […] TTPC did. There are great differences between Gram + and Gram − bacteria in their cell walls. […] The Gram − wall is complicated. It has in addition to the wall of G+ an outer membrane of lipopolysaccharides and phospholipids that protect the cell.

For test [1], the system named is sulfur reducing bacteria (SRB). The experiment in a line: Efficacy in oil/gas fields on sulfur reducing bacteria. The class given is cell-based.
Text: as §1

Test [2] has as its system acid-producing bacteria (APB). Put plainly: Effective kill time of acid-producing bacteria. The class given is cell-based. How it is done:
When TTPC was added to the core Glutaraldehyde or OPA as a substitute for dual chain quaternary ammonium the effective kill time was twice as fast (2×) based upon log reduction. Similarly, the TTPC reduced the effective kill time of acid-producing bacteria (APB) by almost 50%. Although the kill speed of TTPC alone was 20% slower than the glut/quat formula of copending U.S. patent application Ser. No. 12/584,650, when TTPC is combined with glutaraldehyde as a substitute for dual chain quaternary ammonium the kill time increased to four times 4× faster, evidencing the synergism of the present combination.

The next test relates to biofilm. The experiment in a line: Biofilm removability. The settings on record: secondary oil and gas recovery.
Text: as §1

The subject of test [3] is Pseudomonas aeruginosa. The experiment in a line: Chlorine dioxide and TTPC versus Pseudomonas aeruginosa, log reduction. The class given is cell-based. The settings on record: ClO2 of 10 ppm alone; 10^5 ml; 30 min exposure. The procedure:
A test with chlorine dioxide (ClO2) and TTPC versus Pseudomonas aeruginosa was performed at 10^5 ml with ClO2 of 10 ppm. This alone gave a 1 log reduction in 30 min exposure. TTPC alone at 50 ppm gave a 2 log reduction. The combination of ClO2 and TTPC of 5 ppm and 10 ppm gave a 5 log reduction in 30 min.

For test [4] the following is noted: 20-22 degrees C; high level disinfectant; cited from earlier work.
The test system of another test is mycobacterial strains. The settings on record: cited from earlier work.
In test [5] the test system is Pseudomonas aeruginosa. The settings on record: cited from earlier work.

Take `CCCCCCCCCCCCCC[P+](CCCC)(CCCC)CCCC.[Cl-]` [TTPC, tributyl tetradecyl phosphonium chloride]: in the test on aerobic organisms, the “effectiveness relative to the original glut/quat formula” value is given as “twice as effective”. In test [1], the “efficacy on sulfur reducing bacteria (SRB)” value is reported as “almost equally effective”. Moreover, the “reduction of effective kill time of acid-producing bacteria (APB)” value in test [2] is roughly 50%. For the same compound, the “biofilm removability compared to quaternary ammonium” value in the test with biofilm is listed as “superior biofilm removability”.

In the case of `[O][Cl+][O-]` [ClO2, chlorine dioxide], the log reduction in the test on Pseudomonas aeruginosa [3] is on record as 1 log.

`O=Cc1ccccc1C=O` [OPA, ortho-phthalaldehyde]: the disinfection time entry in test [4] is “twelve”. Further, in the test with mycobacterial strains, the “bactericidal activity against mycobacterial strains” value was “limited activity”. Also, in the test with Pseudomonas aeruginosa [5], the “bactericidal activity against Pseudomonas aeruginosa” value is on record as “good”.
